Test [1] addresses Aldo-keto reductase family 1 member B1 (Rattus norvegicus, UniProt P07943). The test is described as follows: biochemical. The format is tissue-based, Lens of camera-type eye.
The nature of test [2]: DRUGMATRIX: Purinergic P2X radioligand binding (ligand: [3H] alpha, beta-Methylene-ATP). Type of test: cell membranes, Oryctolagus cuniculus, New Zealand albino, Urinary bladder, Membrane. As to conditions: Not Active = under 50% inhibition at 10 µM.
The next test deals with Estrogen receptor beta (Homo sapiens, UniProt Q92731). As to conditions: sf9.
Chain of Estrogen receptor beta (Q92731 whole entry): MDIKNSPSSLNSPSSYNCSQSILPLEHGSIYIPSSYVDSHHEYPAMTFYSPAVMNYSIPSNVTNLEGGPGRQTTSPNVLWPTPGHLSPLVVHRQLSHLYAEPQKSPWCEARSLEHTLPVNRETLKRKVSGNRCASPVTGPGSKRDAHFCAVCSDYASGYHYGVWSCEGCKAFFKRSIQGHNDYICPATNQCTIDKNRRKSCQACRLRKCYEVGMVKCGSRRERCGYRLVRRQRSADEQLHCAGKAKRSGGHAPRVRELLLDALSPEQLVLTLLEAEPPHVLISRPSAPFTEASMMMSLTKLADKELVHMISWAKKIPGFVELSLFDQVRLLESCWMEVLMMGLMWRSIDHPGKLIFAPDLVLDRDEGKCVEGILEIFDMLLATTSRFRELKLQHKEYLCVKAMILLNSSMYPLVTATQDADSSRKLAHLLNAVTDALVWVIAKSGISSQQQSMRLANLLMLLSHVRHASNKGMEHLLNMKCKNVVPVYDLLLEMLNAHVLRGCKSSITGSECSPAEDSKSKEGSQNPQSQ
Test [3] can be described thus: DRUGMATRIX: GABAA, Flunitrazepam, Central radioligand binding (ligand: [3H] Flunitrazepam). The format is cell membranes, Rattus norvegicus, Wistar, Brain, Membrane. As to conditions: Not Active = under 50% inhibition at 10 µM.
Test [4] concerns the target T1, 3-hydroxy-3-methylglutaryl-coenzyme A reductase (Homo sapiens, UniProt P04035).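 Note: enzyme inhibition assay of HMG-CoA reductase using radiolabeled [14C]HMG-CoA as substrate; in other assays of this panel Not Active means under 50% inhibition at 10 µM.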
T1 sequence (P04035 whole entry): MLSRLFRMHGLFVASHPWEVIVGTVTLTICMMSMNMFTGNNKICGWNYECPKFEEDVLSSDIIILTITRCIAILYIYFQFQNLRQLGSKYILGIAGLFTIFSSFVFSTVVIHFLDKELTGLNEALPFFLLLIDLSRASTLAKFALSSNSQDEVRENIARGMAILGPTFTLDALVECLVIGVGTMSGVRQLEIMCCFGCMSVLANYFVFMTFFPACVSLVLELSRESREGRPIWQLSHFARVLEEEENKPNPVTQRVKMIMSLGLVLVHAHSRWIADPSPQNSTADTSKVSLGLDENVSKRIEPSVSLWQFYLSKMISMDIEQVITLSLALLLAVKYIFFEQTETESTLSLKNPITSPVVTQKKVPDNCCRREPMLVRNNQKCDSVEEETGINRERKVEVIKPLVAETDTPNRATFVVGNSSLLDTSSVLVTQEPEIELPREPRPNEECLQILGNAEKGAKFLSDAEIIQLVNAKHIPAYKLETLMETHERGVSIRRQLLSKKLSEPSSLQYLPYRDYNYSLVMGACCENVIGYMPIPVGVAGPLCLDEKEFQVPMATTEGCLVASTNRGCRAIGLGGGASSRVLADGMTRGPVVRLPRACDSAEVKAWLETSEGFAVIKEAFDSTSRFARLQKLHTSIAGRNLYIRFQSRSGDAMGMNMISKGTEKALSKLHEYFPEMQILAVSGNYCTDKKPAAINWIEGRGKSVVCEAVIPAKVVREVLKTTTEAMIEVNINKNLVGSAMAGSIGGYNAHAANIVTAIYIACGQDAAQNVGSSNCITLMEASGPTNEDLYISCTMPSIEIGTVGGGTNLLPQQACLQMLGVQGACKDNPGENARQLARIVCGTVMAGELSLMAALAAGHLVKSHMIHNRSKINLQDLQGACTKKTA
Details: species or system Escherichia coli.

Test [5] concerns the target Mitogen-activated protein kinase 14 (Homo sapiens, UniProt Q16539). On the set-up: species or system Escherichia coli.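 Note: inhibition of p38alpha enzyme activity in a biochemical kinase assay, with myelin basic protein serving as substrate; in other assays of this panel Not Active means under 50% inhibition at 10 µM.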
Test [6] is described as follows: DRUGMATRIX: Calcium Channel Type L, Phenylalkylamine radioligand binding (ligand: [3H] (-)-Desmethoxyverapamil (D-888)). The format is cell membranes, Rattus norvegicus, Wistar, Brain, Membrane. As to conditions: Not Active = under 50% inhibition at 10 µM.

The structures appear in SMILES notation.

Drawing on ChEMBL document CHEMBL1909046, “DrugMatrix in vitro pharmacology data”, this text covers IC50 and Ki for 15 molecules.

For orientation: IC50 means the concentration needed to halve the response being measured. One may read the Ki as the dissociation constant of the complex between target and ligand, obtained from inhibition or displacement.

Chain of Mitogen-activated protein kinase 14 (Q16539 whole entry): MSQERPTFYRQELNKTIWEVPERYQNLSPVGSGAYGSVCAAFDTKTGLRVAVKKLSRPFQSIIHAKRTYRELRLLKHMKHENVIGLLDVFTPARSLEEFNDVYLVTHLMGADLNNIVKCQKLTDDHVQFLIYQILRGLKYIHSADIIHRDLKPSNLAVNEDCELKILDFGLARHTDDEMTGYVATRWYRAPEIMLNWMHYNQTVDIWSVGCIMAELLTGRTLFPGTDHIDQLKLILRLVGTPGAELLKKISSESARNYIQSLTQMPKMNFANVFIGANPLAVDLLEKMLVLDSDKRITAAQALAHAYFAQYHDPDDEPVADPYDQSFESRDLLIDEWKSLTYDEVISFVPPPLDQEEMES

`NC(=O)c1cccc(N)c1` [3-AMINOBENZAMIDE]: the IC50 entry (in test [1]; in test [2]; at Estrogen receptor beta; in test [3]; in test [4]; in test [5]) was “Not Active” in each case. For the same molecule, the IC50 entry in test [6] is listed as “Not Active”. The Ki entry in test [2], in test [3] and in test [6] was “Not Active” in each case.
`C[C@H]1O[C@H](O[C@H]2[C@H](O)[C@@H](O)[C@@H](O[C@H]3[C@H](O)[C@@H](O)C(O)O[C@@H]3CO)O[C@@H]2CO)[C@H](O)[C@@H](O)[C@@H]1N[C@H]1C=C(CO)[C@@H](O)[C@H](O)[C@H]1O` (stereo not given in full) [ACARBOSE]: the IC50 result (in test [1]; in test [2]; at Estrogen receptor beta; in test [3]; in test [4]; in test [5]) was “Not Active” in each case. In test [6], the IC50 result is listed as “Not Active”. In addition, the Ki entry in test [2], in test [3] and in test [6] was “Not Active” each time.
Turning to `CC[C@H]1[C@@H]2C[C@H]3[C@@H]4N(C)c5ccccc5[C@]45C[C@@H]([C@@H]2[C@H]5O)N3[C@@H]1O` [AJMALINE], the IC50 result (in test [1]; in test [2]; on Estrogen receptor beta; in test [3]; in test [4]; in test [5]) was “Not Active” throughout. For the same molecule, the IC50 entry in test [6] was “Not Active”. The inhibition constant Ki entry in test [2], in test [3] and in test [6] was “Not Active” in each case.
Consider `NCCCNCCSP(=O)(O)O` [AMIFOSTINE], for which the IC50 result (in test [1]; in test [2]; on Estrogen receptor beta; in test [3]; in test [4]; in test [5]) was “Not Active” each time. Moreover, the IC50 result in test [6] is “Not Active”. Moreover, the inhibition constant Ki entry in test [2], in test [3] and in test [6] was “Not Active” in each case.
On to `CN(C)CCC=C1c2ccccc2CCc2ccccc21` [AMITRIPTYLINE], for which the IC50 result (in test [1]; in test [2]; against Estrogen receptor beta; in test [3]; in test [4]; in test [5]) was “Not Active” throughout. In test [6] (read-out: IC50), the IC50 came out at 0.84 µM. The Ki result was “Not Active” in test [2], “Not Active” in test [3] and 0.816 µM in test [6] (read-out: Ki).
For `CC(=O)Oc1ccccc1C(=O)O` [ASPIRIN], the IC50 entry (in test [1]; in test [2]; against Estrogen receptor beta; in test [3]; in test [4]; in test [5]) was “Not Active” throughout. The IC50 entry in test [6] is “Not Active”. The inhibition constant Ki entry in test [2], in test [3] and in test [6] was “Not Active” throughout.
With `CC(=O)OC[C@H]1O[C@@H](n2ncc(=O)[nH]c2=O)[C@H](OC(C)=O)[C@@H]1OC(C)=O` [AZARIBINE], the half-maximal inhibitory concentration (IC50) entry (in test [1]; in test [2]; against Estrogen receptor beta; in test [3]; in test [4]; in test [5]) was “Not Active” throughout. Moreover, the IC50 result in test [6] is “Not Active”. In addition, the Ki entry in test [2], in test [3] and in test [6] was “Not Active” throughout.
In the case of `C[C@H]1[C@H](NC(=O)/C(=N\OC(C)(C)C(=O)O)c2csc(N)n2)C(=O)N1S(=O)(=O)O` [AZTREONAM], the IC50 entry (in test [1]; in test [2]; at Estrogen receptor beta; in test [3]; in test [4]; in test [5]) was “Not Active” in each case. For the same molecule, in test [6], the IC50 result is recorded as “Not Active”. Further, the Ki entry in test [2], in test [3] and in test [6] was “Not Active” each time.
In the case of `O=C(O)CCNC(=O)c1ccc(/N=N/c2ccc(O)c(C(=O)O)c2)cc1` [BALSALAZIDE], the IC50 entry (in test [1]; in test [2]; at Estrogen receptor beta; in test [3]; in test [4]; in test [5]) was “Not Active” each time. Moreover, in test [6], the IC50 entry is on record as “Not Active”. The Ki result in test [2], in test [3] and in test [6] was “Not Active” each time.
Take `ClC(Cl)(Cl)Cl` [CARBON TETRACHLORIDE]: the IC50 result (in test [1]; in test [2]; against Estrogen receptor beta; in test [3]; in test [4]; in test [5]) was “Not Active” throughout. In addition, in test [6], the IC50 entry is listed as “Not Active”. Moreover, the Ki result in test [2], in test [3] and in test [6] was “Not Active” each time.
With `CO/N=C(\C(=O)N[C@@H]1C(=O)N2C(C(=O)O)=C(COC(C)=O)CS[C@H]12)c1csc(N)n1` [CEFOTAXIME], the IC50 entry (in test [1]; in test [2]; at Estrogen receptor beta; in test [3]; in test [4]; in test [5]) was “Not Active” throughout. In addition, the IC50 result in test [6] is “Not Active”. Besides, the inhibitory constant (Ki) result in test [2], in test [3] and in test [6] was “Not Active” throughout.
With `CNC1=Nc2ccc(Cl)cc2C(c2ccccc2)=[N+]([O-])C1` [CHLORDIAZEPOXIDE], the IC50 entry was “Not Active” in test [1]; “Not Active” in test [2]; “Not Active” against Estrogen receptor beta; 1.43 µM in test [3] (read-out: IC50); “Not Active” in test [4]; “Not Active” in test [5]. Moreover, the IC50 result in test [6] is recorded as “Not Active”. Besides, the Ki entry in test [2] was “Not Active”; in test [3] (read-out: Ki), 1.16 µM; in test [6] it was “Not Active”.
Consider `Cc1cc(O)cc(C)c1Cl` [CHLOROXYLENOL], for which the IC50 entry (in test [1]; in test [2]; against Estrogen receptor beta; in test [3]; in test [4]; in test [5]) was “Not Active” in each case. Moreover, the IC50 result in test [6] was “Not Active”. Moreover, the Ki result in test [2], in test [3] and in test [6] was “Not Active” in each case.
With `CCCNC(=O)NS(=O)(=O)c1ccc(Cl)cc1` [CHLORPROPAMIDE], the IC50 entry (in test [1]; in test [2]; against Estrogen receptor beta; in test [3]; in test [4]; in test [5]) was “Not Active” in each case. Besides, the IC50 entry in test [6] is listed as “Not Active”. Besides, the Ki result in test [2], in test [3] and in test [6] was “Not Active” each time.
As to `NS(=O)(=O)c1cc(C2(O)NC(=O)c3ccccc32)ccc1Cl` (stereo not given) [CHLORTHALIDONE], the IC50 entry (in test [1]; in test [2]; on Estrogen receptor beta; in test [3]; in test [4]; in test [5]) was “Not Active” throughout. For the same molecule, the IC50 entry in test [6] is recorded as “Not Active”. Further, the Ki entry in test [2], in test [3] and in test [6] was “Not Active” in each case.
